Laboratory results published in patent US6114517A, “Methods of modulating tumor necrosis factor α-induced expression of cell adhesion molecules” (Isis Pharmaceuticals Inc., priority 1998, dated 2000).
One block for each substance: values may come before it.

How the values were obtained:
Type in all cases: cell-based, human
[1] = test system: E-selectin; assay: TNF-α-induced E-selectin cell surface expression in HMVEC, flow cytometry
Procedure: (§1) Human dermal microvascular cells (HMVEC-d; Clonetics, San Diego, Calif.) were cultivated in endothelial basal media (EBM, Clonetics) supplemented with 10% fetal bovine serum (HyClone, Logan, Utah). Cells were grown in 100 mm petri dishes until 70-80% confluent, then washed with PBS and OPTI-MEM (Life Technologies, Inc., Gaithersburg, Md.). The cells were then incubated in the presence of OPTI-MEM and […] LIPOFECTIN (a 1:1 (w/w) liposome formulation of the cationic lipid N-[1-(2,3-dioleyloxy)propyl]-n,n,n-trimethylammonium chloride (DOTMA), and dioleoyl phosphotidylethanolamine (DOPE) in membrane filtered water (Life Technologies, Gaithersburg, Md.), per 100 nM of oligonucleotide followed by addition of oligonucleotide at the appropriate concentrations.
(§2) The effect of c-raf and Ha-ras antisense oligonucleotide treatment on the induction of E-selectin by TNF-α was examined. HMVEC cells were treated with either the c-raf or Ha-ras antisense compound under dose-response conditions or over time at a single dose level followed by stimulation of E-selectin expression by TNF-α for 5 hours. The cell surface expression of E-selectin was determined by flow cytometry analysis. Following oligonucleotide treatment, cells were detached from the plates and analyzed for surface expression of cell adhesion molecules using a Becton Dickinson (San Jose, Calif.) FACScan. TNF-α and FITC conjugated antibody for E-selectin were obtained from R & D Systems (Minneapolis, Minn.). PE-conjugated antibody for ICAM-1 was obtained from Pharmingen (San Diego, Calif.). VCAM-1 antibody was obtained from Santa Cruz Biotechnology, Santa Cruz, Calif. Cell surface expression was calculated using the mean value of fluorescence intensity using 3,000-5,000 cells stained with the appropriate antibody for each sample and time point. Results are expressed as percentage of control (cell surface expression induced by TNF-α in cells that were not treated with oligonucleotides) based upon mean fluorescence intensity.
The effects of c-raf, Ha-ras, and a E-selectin antisense oligonucleotide on TNF-α-induced E-selectin cell surface expression under kinetic conditions were examined. […] To test this, cells were treated, separately, with antisense oligonucleotides to E-selectin, ICAM-1 and VCAM-1 and allowed to recover prior to TNF-α treatment. […] E-selectin cell surface expression was measured by flow cytometry analysis after 5 hours of TNF-A treatment.

[2] = test system: ICAM-1; assay: TNF-α-induced ICAM-1 cell surface expression in HMVEC, flow cytometry
Procedure: as §1
as §2, with “intensity. Basal expression of E-selectin and VCAM-1 is undetectable in the absence of TNF-α whereas a low level of basal expression is detectable for ICAM-1.” for “intensity.”
(§3) TNF-α induction of ICAM-1 and VCAM-1 in cells treated with c-raf and Ha-ras antisense oligonucleotides was also examined to further define the roles of c-raf and Ha-ras in cytokine signaling. Oligonucleotides were tested, using flow cytometry analysis, as described in Example 4. Results are shown in Table 6 (ICAM-1) and Table 7 (VCAM-1).

[3] = test system: E-selectin mRNA; assay: TNF-α-induced E-selectin mRNA, Northern blot; conditions: 48 hrs recovery, TNF-α two to three hours before RNA analysis
Procedure: (§4) For determination of mRNA levels by Northern blot, total RNA was prepared from cells by the guanidinium isothiocyanate procedure or by the Qiagen RNAEASY method (Qiagen, Santa Clarita, Calif.) at the indicated times after initiation of oligonucleotide treatment. Northern blot analysis was performed as described in Current Protocols in Molecular Biology (Ausubel, F. M., et al., (eds), 1987, Greene Publishing Assoc. and Wiley Interscience, New York). A glyceraldehyde 3-phosphate dehydrogenase (G3PDH) probe was purchased from Clontech (Palo Alto, Calif., Catalog Number 9805-1). RNA was quantified and normalized to G3PDH mRNA levels using a Molecular Dynamic PHOSPHORIMAGER (Sunnyvale, Calif.).
(§5) Northern blot analysis was carried out to examine whether c-raf and Ha-ras antisense oligonucleotides inhibit the induction of cell adhesion molecules at the transcriptional level. Cells were treated with c-raf (ISIS 12854, SEQ ID NO. 2) or Ha-ras (ISIS 15168, SEQ ID NO. 4) antisense oligonucleotides and allowed to recover for 48 hrs. TNF-α was added two to three hours prior to RNA analysis and Northern blotting was performed with probes specific for E-selectin, ICAM-1, and VCAM-1. The probe for E-selectin was obtained by PCR amplification using primers directed to HUMELAM1A (Genbank Accession No. M24736; SEQ ID NO. 18).

[4] = test system: VCAM-1 mRNA; assay: TNF-α-induced VCAM-1 mRNA, Northern blot; conditions: 48 hrs recovery, TNF-α two to three hours before RNA analysis
Procedure: as §4, §5

[5] = test system: VCAM-1; assay: TNF-α-induced VCAM-1 cell surface expression in HMVEC, flow cytometry
Procedure: as §1
as §2, with “intensity. Basal expression of E-selectin and VCAM-1 is undetectable in the absence of TNF-α whereas a low level of basal expression is detectable for ICAM-1.” for “intensity.”
as §3

[6] = test system: c-raf mRNA; assay: c-raf mRNA levels by Northern blot in HMVEC
Procedure: as §1, §4
ISIS 12854 (SEQ ID NO. 2) is a 2'-O-methoxyethyl mixed backbone chimeric antisense oligonucleotide designed to hybridize with 3'-untranslated sequences contained within human c-raf mRNA. To determine whether this antisense oligonucleotide is effective as a c-raf inhibitor in endothelial cells, human dermal microvascular cells (HMVEC) were treated with ISIS 12854 (SEQ ID NO. 2) as described in Example 2. C-raf mRNA and protein expression was examined by northern and Western blot analysis. The c-raf cDNA probe was generated from the plasmid, p627 (American Type Culture Collection, Manassas, Va.; catalog #41050), following the supplied instructions. The c-raf antibody was obtained from Transduction Laboratories, Inc. (Lexington, Ky.).

[7] = test system: ICAM-1 mRNA; assay: TNF-α-induced ICAM-1 mRNA, Northern blot; conditions: 48 hrs recovery, TNF-α two to three hours before RNA analysis
Procedure: as §4, §5

[8] = test system: JNK1; assay: TNF-α-mediated JNK1 kinase activity, isoform-specific JNK assay; conditions: FIG. 5
Procedure: (§6) To examine the effect of the c-raf antisense oligonucleotide (ISIS 12854, SEQ ID NO. 2) on ERK, JNK, and p38 MAPK activities stimulated by TNF-α, in vitro kinase assays were performed on extracts derived from cells treated with ISIS 12854 (SEQ ID NO. 2). Cells were treated with oligonucleotides and induced with cytokines. At the indicated time, cells were lysed on ice and debris was removed by centrifugation. Protein concentration was measured by Bradford assay. Lysate containing equal amounts of protein were incubated with primary antibody-agarose conjugates (ERK and p38 assay; Santa Cruz Biotechnology, Santa Cruz, Calif.), or with JNK1-specific or JNK2-specific antibodies (JNK assay; Upstate Biotechnology, Lake Placid, N.Y.), overnight at 4° C.
(§7) For isoform-specific JNK assays, anti-rabbit IgG conjugated with agarose beads was added to cell extracts following JNK antibody treatment and wash steps and incubated for 2 hours at 4° C. After washing with lysis buffer and kinase buffer, the pelleted beads were incubated with 1 μg of substrate (Elk-1 for ERK, ATF-2 for p38, and c-Jun for JNK MAPK) and 100 […] of ATP for 20 minutes at 37° C. MAPK and JNK assay kits, ATF-2 fusion protein, and antibodies for ATF-2, Elk-1 phospho-ATF-2 were purchased from New England BioLabs (Boston, Mass.). Reactions were terminated by the addition of 3×SDS sample buffer followed by boiling. […]

[9] = test system: JNK1 mRNA; assay: JNK1 mRNA expression by Northern blot; conditions: at the concentration tested, FIG. 4
Procedure: as §1
as §4, with “A glyceraldehyde 3-phosphate dehydrogenase (G3PDH) probe was purchased from Clontech (Palo Alto, Calif., Catalog Number 9805-1).” left out, “Calif.). […]” for “Calif.).”

[10] = test system: JNK2; assay: TNF-α-mediated JNK2 kinase activity, isoform-specific JNK assay; conditions: FIG. 5
Procedure: as §6, §7

[11] = test system: JNK2 mRNA; assay: JNK2 mRNA expression by Northern blot; conditions: at the concentration tested, FIG. 4
Procedure: as §1
as §4, with “A glyceraldehyde 3-phosphate dehydrogenase (G3PDH) probe was purchased from Clontech (Palo Alto, Calif., Catalog Number 9805-1).” left out, “Calif.). […]” for “Calif.).”

[12] = Table 9, JNK antisense series, 20 nM
[13] = Table 9, JNK antisense series, 50 nM
[14] = Table 9, JNK antisense series, 100 nM
[15] = time course, 12 h/20 h after oligonucleotide treatment, TNF-α 5 hours
[16] = time course, 48 h after oligonucleotide treatment, TNF-α 5 hours
[17] = time course, 72 h after oligonucleotide treatment, TNF-α 5 hours

Substance: AoToGoCoAoTsTsCsTsGsCsCsCsCsCoAoAoGoGoA [ISIS 15727, reference compound]
- % Cell Surface Expression (E-selectin) ([1]; 25 nM, TNF-α for 5 hours, % of control): 119%
- % Cell Surface Inhibition (E-selectin) ([1]; 75 nM, TNF-α for 5 hours): 6%
- % Cell Surface Expression (E-selectin) ([1]; 75 nM, TNF-α for 5 hours, % of control): 94%
- % Cell Surface Expression (E-selectin) ([1]; 150 nM, TNF-α for 5 hours, % of control): 106%
- % Cell Surface Expression (E-selectin) [1, 12]: 137%
- % Cell Surface Expression (E-selectin) [1, 13]: 128%
- % Cell Surface Expression (E-selectin) [1, 14]: 124%
- effect on E-selectin induction ([1]; dose response, HMVEC): little to no effect
- % Cell Surface Expression (E-selectin) [1, 15]: 93%
- % Cell Surface Inhibition (E-selectin) [1, 15]: 7%
- % Cell Surface Expression (E-selectin) [1, 16]: 106%
- % Cell Surface Expression (E-selectin) [1, 17]: 81%
- % Cell Surface Inhibition (E-selectin) [1, 17]: 19%
- % Cell Surface Expression (ICAM-1) ([2]; 20 nM): 97%
- % Cell Surface Inhibition (ICAM-1) ([2]; 20 nM): 3%
- % Cell Surface Expression (ICAM-1) ([2]; 50 nM): 89%
- % Cell Surface Inhibition (ICAM-1) ([2]; 50 nM): 11%
- % Cell Surface Expression (ICAM-1) ([2]; 100 nM): 87%
- % Cell Surface Inhibition (ICAM-1) ([2]; 100 nM): 13%
- % mRNA Expression (E-selectin) [3]: 103%
- % mRNA Expression (VCAM-1) [4]: 113%
- % Cell Surface Expression (VCAM-1) ([5]; 20 nM): 69%
- % Cell Surface Inhibition (VCAM-1) ([5]; 20 nM): 31%
- % Cell Surface Expression (VCAM-1) ([5]; 50 nM): 81%
- % Cell Surface Inhibition (VCAM-1) ([5]; 50 nM): 19%
- % Cell Surface Expression (VCAM-1) ([5]; 100 nM): 74%
- % Cell Surface Inhibition (VCAM-1) ([5]; 100 nM): 26%
- effect on c-raf mRNA [6]: did not exhibit any effect
- % mRNA Expression (c-raf) ([6]; 100 nM): 96%
- % mRNA Inhibition (c-raf) ([6]; 100 nM): 4%
- % mRNA Expression (c-raf) ([6]; 200 nM): 135%
- % mRNA Expression (ICAM-1) [7]: 107%

- TNF-α-mediated induction of JNK1 activity [8]: effectively reduced
Substance: CoToCoToCoTsGsTsAsGsGsCsCsCsGsCoToToGoG [ISIS 15347]
- % Cell Surface Expression (E-selectin) [1, 12]: 89%
- % Cell Surface Inhibition (E-selectin) [1, 12]: 11%
- % Cell Surface Expression (E-selectin) [1, 13]: 84%
- % Cell Surface Inhibition (E-selectin) [1, 13]: 16%
- % Cell Surface Expression (E-selectin) [1, 14]: 82%
- % Cell Surface Inhibition (E-selectin) [1, 14]: 18%
- JNK1 mRNA expression [9]: nearly complete inhibition

- TNF-α-mediated induction of JNK2 activity [10]: effectively reduced
Substance: GoToCoCoGoGsGsCsCsAsGsGsCsCsAsAoAoGoToC [ISIS 15354]
- % Cell Surface Expression (E-selectin) [1, 12]: 32%
- % Cell Surface Inhibition (E-selectin) [1, 12]: 68%
- % Cell Surface Expression (E-selectin) [1, 13]: 29%
- % Cell Surface Inhibition (E-selectin) [1, 13]: 71%
- % Cell Surface Expression (E-selectin) [1, 14]: 33%
- % Cell Surface Inhibition (E-selectin) [1, 14]: 67%
- JNK2 mRNA expression [11]: nearly complete inhibition
- JNK1 mRNA expression [9]: without affecting

Substance: GsAsAsGsTsCsAsGsCsCsAsAsGsAsAsCsAsGsCsT (GAAGTCAGCCAAGAACAGCT; all phosphorothioate, sugars by position and methylation of C not given here) [ISIS 11928, fully phosphorothioated oligonucleotide with all 2'-methoxyethoxy nucleotides except a 3' terminal 2'-deoxy nucleotide, antisense to E-selectin]
- block of E-selectin cell surface expression ([1]; concentrations as low as 20 nM, 12 hours following treatment): 80%
- % Cell Surface Expression (E-selectin) [1, 15]: 22%
- % Cell Surface Inhibition (E-selectin) [1, 15]: 78%
- % Cell Surface Expression (E-selectin) [1, 16]: 29%
- % Cell Surface Inhibition (E-selectin) [1, 16]: 71%
- % Cell Surface Expression (E-selectin) [1, 17]: 32%
- % Cell Surface Inhibition (E-selectin) [1, 17]: 68%
